Laboratory results reported in patent US9181307B2, “Influenza A 2009 pandemic H1N1 polypeptide fragments comprising endonuclease activity and their use” (priority 2010, dated 2015).

tested on: Influenza A 2009 pandemic H1N1 PA subunit polypeptide fragment or variant thereof; assay: Inhibition of endonucleolytic activity of PA subunit polypeptide fragment; type: biochemical, Influenza A 2009 pandemic H1N1 virus

Row | Compound | ability to modulate, i.e. to inhibit, the endonucleolytic activity
1 | O=C(O[C@@H]1Cc2c(O)cc(O)cc2O[C@@H]1c1cc(O)c(O)c(O)c1)c1cc(O)c(O)c(O)c1 [EGCG, [(2R,3R)-5,7-dihydroxy-2-(3,4,5-trihydroxyphenyl)chroman-3-yl]3,4,5-trihydroxybenzoate] | inhibit
2 | O=C(O)/C(O)=C/C(=O)C1(Cc2ccc(Cl)cc2)CCN(CC2CCCCC2)CC1 [EMBL-R05-2, 4-[4-[(4-chlorophenyl)methyl]-1-(cyclohexylmethyl)-4-piperidinyl]-2-hydroxy-4-oxo-2-butenoic acid] | inhibit
3 | O=C(O)/C(O)=C/C(=O)C1(Cc2ccc(Cl)cc2)CCCN(Cc2ccccc2)C1 (stereo not drawn) [EMBL-R05-3, 4-[3-[(4-chlorophenyl)methyl]-1-(phenylmethyl)-3-piperidinyl]-2-hydroxy-4-oxo-2-butenoic acid] | inhibit
